According to PMC8222254, “Self-assembly of an anion receptor with metal-dependent kinase inhibition and potent in vitro anti-cancer properties” (Nature Communications, 2021):
Where “and” joins values, the source holds several entries; their conditions need not be identical. Equal entries are not always repeated.

Assays:
Experiment in all cases: Kinase inhibition screen, cell-free 33P ATP assay at 10 μM
Format in all cases: biochemical
[1] = target: T1, 140 purified human kinases (Homo sapiens, UniProt Q9UHD2)
T1 sequence (Q9UHD2 1-729): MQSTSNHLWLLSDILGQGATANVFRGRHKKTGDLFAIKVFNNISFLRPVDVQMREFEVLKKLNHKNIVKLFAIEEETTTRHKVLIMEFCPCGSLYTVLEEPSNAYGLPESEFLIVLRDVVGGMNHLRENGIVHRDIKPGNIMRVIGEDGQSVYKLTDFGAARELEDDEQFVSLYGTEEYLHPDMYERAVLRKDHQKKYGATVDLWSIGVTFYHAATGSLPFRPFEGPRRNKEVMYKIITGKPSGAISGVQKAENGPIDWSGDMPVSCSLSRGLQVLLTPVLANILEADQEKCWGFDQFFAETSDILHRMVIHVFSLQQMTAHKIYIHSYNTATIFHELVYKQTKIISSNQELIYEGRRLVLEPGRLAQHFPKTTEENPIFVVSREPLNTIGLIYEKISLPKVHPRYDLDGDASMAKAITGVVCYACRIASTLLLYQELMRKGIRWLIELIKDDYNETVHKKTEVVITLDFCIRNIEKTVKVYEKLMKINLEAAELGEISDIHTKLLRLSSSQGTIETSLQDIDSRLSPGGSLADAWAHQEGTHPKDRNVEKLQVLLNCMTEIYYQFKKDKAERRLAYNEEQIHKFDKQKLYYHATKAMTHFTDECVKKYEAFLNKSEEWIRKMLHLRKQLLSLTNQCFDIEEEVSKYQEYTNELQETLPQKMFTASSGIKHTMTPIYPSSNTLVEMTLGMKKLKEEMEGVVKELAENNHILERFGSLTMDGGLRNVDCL
Method: (§1) [L2Cu3]^6+ and [L2Zn3]^6+ were submitted to the MRC Protein Phosphorylation and Ubiquitination Unit International Centre for Kinase Profiling (University of Dundee) and tested in duplicate (at 10 μM) against a series of 140 purified human kinases in a cell-free kinase assay using ^33P ATP[55],[56]. The kinase gene IDs from the screen were then translated into common IDs (HGNC symbol) using biomaRt package[57],[58] in R[59] and R Studio[60] and used as input to the KinMap programme.

[2] = target: T2, 140 purified human kinases (Homo sapiens, UniProt O00418); conditions: EF2K
T2 sequence (O00418 1-725): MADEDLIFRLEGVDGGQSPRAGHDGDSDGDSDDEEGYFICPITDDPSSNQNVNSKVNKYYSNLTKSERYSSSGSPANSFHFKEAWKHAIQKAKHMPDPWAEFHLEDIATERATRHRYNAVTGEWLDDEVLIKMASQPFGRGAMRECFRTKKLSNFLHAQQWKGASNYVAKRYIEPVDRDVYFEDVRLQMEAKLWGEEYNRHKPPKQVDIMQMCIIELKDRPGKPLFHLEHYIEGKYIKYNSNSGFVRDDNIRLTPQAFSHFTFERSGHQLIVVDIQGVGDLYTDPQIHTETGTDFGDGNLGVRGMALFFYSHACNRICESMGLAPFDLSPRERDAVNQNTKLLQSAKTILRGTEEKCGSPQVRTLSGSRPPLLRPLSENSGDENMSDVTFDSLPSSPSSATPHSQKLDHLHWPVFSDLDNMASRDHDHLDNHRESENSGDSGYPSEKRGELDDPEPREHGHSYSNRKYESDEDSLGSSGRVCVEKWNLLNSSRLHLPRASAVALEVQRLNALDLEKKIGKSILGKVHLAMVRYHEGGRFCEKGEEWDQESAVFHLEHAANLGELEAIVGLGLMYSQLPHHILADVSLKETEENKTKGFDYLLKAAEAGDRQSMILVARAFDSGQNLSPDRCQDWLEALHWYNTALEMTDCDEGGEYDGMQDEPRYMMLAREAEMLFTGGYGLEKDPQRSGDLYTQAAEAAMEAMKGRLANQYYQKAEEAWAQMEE
Method: as §1

[3] = target: T3, 140 purified human kinases (Homo sapiens, UniProt O60285)
T3 sequence (O60285 1-661): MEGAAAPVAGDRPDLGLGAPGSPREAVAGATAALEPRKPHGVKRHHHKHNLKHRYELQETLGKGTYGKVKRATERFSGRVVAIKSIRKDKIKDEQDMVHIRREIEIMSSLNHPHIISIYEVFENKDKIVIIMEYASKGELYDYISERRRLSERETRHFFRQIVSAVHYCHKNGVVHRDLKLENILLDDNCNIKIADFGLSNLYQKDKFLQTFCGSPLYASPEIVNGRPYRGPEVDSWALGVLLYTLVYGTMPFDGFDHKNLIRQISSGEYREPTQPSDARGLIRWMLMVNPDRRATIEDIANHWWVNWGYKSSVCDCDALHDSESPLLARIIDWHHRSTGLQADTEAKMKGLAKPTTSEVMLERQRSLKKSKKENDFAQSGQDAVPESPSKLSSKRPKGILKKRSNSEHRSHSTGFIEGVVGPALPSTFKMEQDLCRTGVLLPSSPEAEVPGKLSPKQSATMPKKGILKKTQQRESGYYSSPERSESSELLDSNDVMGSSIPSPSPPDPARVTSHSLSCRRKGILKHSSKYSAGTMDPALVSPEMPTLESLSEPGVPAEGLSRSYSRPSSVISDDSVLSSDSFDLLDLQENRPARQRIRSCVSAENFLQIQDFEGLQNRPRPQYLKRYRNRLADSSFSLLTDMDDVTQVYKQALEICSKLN
Method: as §1

[4] = target: 140 purified human kinases (Homo sapiens, UniProt P28482)
Method: as §1

Chain of 140 purified human kinases (Homo sapiens, UniProt P28482) (P28482 whole entry): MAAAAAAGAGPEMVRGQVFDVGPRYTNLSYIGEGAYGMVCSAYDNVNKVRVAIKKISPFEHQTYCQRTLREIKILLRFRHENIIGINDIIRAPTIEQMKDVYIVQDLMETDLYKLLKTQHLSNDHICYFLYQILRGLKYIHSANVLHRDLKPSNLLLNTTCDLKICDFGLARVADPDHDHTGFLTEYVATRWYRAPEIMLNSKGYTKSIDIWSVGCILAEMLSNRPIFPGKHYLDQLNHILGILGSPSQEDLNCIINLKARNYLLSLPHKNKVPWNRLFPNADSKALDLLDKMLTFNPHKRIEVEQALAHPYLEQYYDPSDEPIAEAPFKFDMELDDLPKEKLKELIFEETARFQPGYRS

[Cu+2].[Cu+2].[Cu+2].c1ccc(-c2csc(NCCN(CCNc3nc(-c4ccccn4)cs3)CCNc3nc(-c4ccccn4)cs3)n2)nc1.c1ccc(-c2csc(NCCN(CCNc3nc(-c4ccccn4)cs3)CCNc3nc(-c4ccccn4)cs3)n2)nc1 [[L2Cu3]6+]
% Inhibition Run 1 ([1]; TBK1): 60.3%
% Inhibition Run 2 ([1]; TBK1): 64%
% Inhibition, Mean ([1]; TBK1): 62%
mean % activity ([1]; TBK1): 38%
% activity ([1]; TBK1, Run 1): 39.7%
% activity ([1]; TBK1, Run 2): 36%
% Inhibition Run 1 [2]: 60.6%
% Inhibition Run 2 [2]: 65.9%
% Inhibition, Mean [2]: 63%
mean % activity [2]: 37%
% activity ([2]; Run 1): 39.4%
% activity ([2]; Run 2): 34.1%
% Inhibition Run 1 ([3]; NUAK1): 93.9%
% Inhibition Run 2 ([3]; NUAK1): 92.9%
% Inhibition, Mean ([3]; NUAK1): 93%
mean % activity ([3]; NUAK1): 6.6%
% activity ([3]; NUAK1, Run 1): 6.1%
% activity ([3]; NUAK1, Run 2): 7.1%
% Activity inhibition Mean ([3]; NUAK1, 10 µM): 93.4%
% Activity inhibition Run 1 ([3]; NUAK1, 10 µM): 93.9%
% Activity inhibition Run 2 ([3]; NUAK1, 10 µM): 92.9%
% Activity remaining Run 1 ([3]; NUAK1, 10 µM): 6.10%
% Activity remaining Run 2 ([3]; NUAK1, 10 µM): 7.10%
% Inhibition Run 1 ([4]; ERK2): 12.1%
% Inhibition Run 2 ([4]; ERK2): 8.4%
% Inhibition, Mean ([4]; ERK2): 10%
mean % activity ([4]; ERK2): 90%
% activity ([4]; ERK2, Run 1): 87.9%
% activity ([4]; ERK2, Run 2): 91.6%

CC(=O)[O-].CC(=O)[O-].CC(=O)[O-].CC(=O)[O-].CC(=O)[O-].CC(=O)[O-].[Zn+2].[Zn+2].[Zn+2].c1ccc(-c2csc(NCCN(CCNc3nc(-c4ccccn4)cs3)CCNc3nc(-c4ccccn4)cs3)n2)nc1.c1ccc(-c2csc(NCCN(CCNc3nc(-c4ccccn4)cs3)CCNc3nc(-c4ccccn4)cs3)n2)nc1 [[L2Zn3]6+]
% Inhibition, Mean ([1]; TBK1): 13%
mean % activity ([1]; TBK1): 87%
% activity ([1]; TBK1, duplicate runs): 81% and 93%
% Activation, Mean value [2]: 0.8%
% Inhibition, Mean [2]: -0.8%
% Inhibition, Run 1 / Run 2 [2]: 2% and -3.6%
mean % activity [2]: 101%
% activity ([2]; duplicate runs): 98% and 104%
% Inhibition, Mean ([3]; NUAK1): 61%
% Inhibition, Run 1 / Run 2 ([3]; NUAK1): 64% and 59%
mean % activity ([3]; NUAK1): 39%
% activity ([3]; NUAK1, duplicate runs): 36% and 41%
% Inhibition, Mean ([4]; ERK2): 18%
% Inhibition, Run 1 / Run 2 ([4]; ERK2): 19% and 18%
mean % activity ([4]; ERK2): 82%
% activity ([4]; ERK2, duplicate runs): 81% and 82%
